Inconclusive results and toxic doses are left out.
System: P388 leukemia ip, CD2F1 mice, survival T/C
Test: NCI In Vivo Anticancer Drug Screen. Data for tumor model P388 Leukemia (intraperitoneal) in CD2F1 (CDF1) mice
Details: endpoint: median survival time, higher = longer survival
Procedure, shortened: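 Mice carrying the transplanted tumor received test compound or vehicle. Survival was recorded in each group, and the value is the treated-group measurement divided by that of the vehicle-treated control group.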

[1] = dose: 60.0 mg/kg/injection, schedule: Q01DX005 (ip), vehicle: saline with Tween-80
[2] = dose: 120.0 mg/kg/injection, schedule: Q01DX005 (ip), vehicle: saline with Tween-80
[3] = dose: 240.0 mg/kg/injection, schedule: Q01DX005 (ip), vehicle: saline with Tween-80

In the case of `CC1C(=O)C23CC1CCC2C12COC(O)C1C(C)(C)C(O)CC2OC3=O` (configuration not stated), the T/C (dose: 12.5 mg/kg/injection, schedule: Q01DX005 (ip), vehicle: Klucel (hydroxypropylcellulose) (HPC)) is reported as 100 % of control, the T/C (dose: 25.0 mg/kg/injection, schedule: Q01DX005 (ip), vehicle: Klucel (hydroxypropylcellulose) (HPC)) is reported as 94 % of control and the T/C (dose: 50.0 mg/kg/injection, schedule: Q01DX005 (ip), vehicle: Klucel (hydroxypropylcellulose) (HPC)) is reported as 100 % of control. The T/C (dose: 61.5 mg/kg/injection, schedule: Q01DX005 (ip), vehicle: Klucel (hydroxypropylcellulose) (HPC)) was 96 % of control, the T/C (dose: 100.0 mg/kg/injection, schedule: Q01DX005 (ip), vehicle: Klucel (hydroxypropylcellulose) (HPC)) was 102 % of control and the T/C (dose: 123.0 mg/kg/injection, schedule: Q01DX005 (ip), vehicle: Klucel (hydroxypropylcellulose) (HPC)) was 106 % of control. For the same compound, the T/C (dose: 246.0 mg/kg/injection, schedule: Q01DX005 (ip), vehicle: Klucel (hydroxypropylcellulose) (HPC)) was 98 % of control.

With `COc1ccc(-c2cc(=O)c3ccc4cc(OC)c(OC)cc4c3o2)cc1` the T/C (dose: 12.5 mg/kg/injection, schedule: Q01DX009 (ip), vehicle: other) was 91 % of control, the T/C (dose: 100.0 mg/kg/injection, schedule: Q01DX009 (ip), vehicle: other) was 88 % of control and the T/C (dose: 200.0 mg/kg/injection, schedule: Q01DX009 (ip), vehicle: other) was 91 % of control.

`CSCCC(NC=O)C(=O)O` (configuration not stated) was tested, and the T/C (dose: 3.12 mg/kg/injection, schedule: Q01DX009 (ip), vehicle: saline) was 88 % of control, the T/C (dose: 6.25 mg/kg/injection, schedule: Q01DX009 (ip), vehicle: saline) was 91 % of control and the T/C (dose: 12.5 mg/kg/injection, schedule: Q01DX009 (ip), vehicle: saline) was 87 % of control. For the same compound, the T/C (dose: 25.0 mg/kg/injection, schedule: Q01DX009 (ip), vehicle: saline) was 92 % of control, the T/C (dose: 50.0 mg/kg/injection, schedule: Q01DX005 (ip), vehicle: saline) was 98 % of control and the T/C (dose: 100.0 mg/kg/injection, schedule: Q01DX005 (ip), vehicle: saline) was 98 % of control. For the same compound, the T/C (dose: 200.0 mg/kg/injection, schedule: Q01DX005 (ip), vehicle: saline) was 98 % of control.

In the case of `Cc1cccc(-[n+]2noc(N)n2)c1`, the T/C (dose: 3.13 mg/kg/injection, schedule: Q01DX009 (ip), vehicle: water) is reported as 100 % of control, the T/C (dose: 6.25 mg/kg/injection, schedule: Q01DX009 (ip), vehicle: water) is reported as 100 % of control and the T/C (dose: 12.5 mg/kg/injection, schedule: Q01DX009 (ip), vehicle: water) is reported as 114 % of control. The T/C (dose: 25.0 mg/kg/injection, schedule: Q01DX009 (ip), vehicle: water) was 152 % of control and the T/C (dose: 50.0 mg/kg/injection, schedule: Q01DX009 (ip), vehicle: water) was 167 % of control.

In the case of `CN(C)P(N)(N)=O`, the T/C (dose: 100.0 mg/kg/injection, schedule: Q01DX009 (ip), vehicle: saline) is reported as 105 % of control, the T/C (dose: 200.0 mg/kg/injection, schedule: Q01DX009 (ip), vehicle: saline) is reported as 95 % of control and the T/C (dose: 400.0 mg/kg/injection, schedule: Q01DX009 (ip), vehicle: saline) is reported as 100 % of control.

`O=[N+]([O-])C1CCCCCCCCCCC1` was tested, and the T/C (dose: 100.0 mg/kg/injection, schedule: Q01DX001 (ip), vehicle: other) was 100 % of control, the T/C (dose: 200.0 mg/kg/injection, schedule: Q01DX001 (ip), vehicle: other) was 100 % of control and the T/C (dose: 400.0 mg/kg/injection, schedule: Q01DX001 (ip), vehicle: other) was 108 % of control.

With `CCOC(=O)n1c2ccccc2c(=O)n1CCO` the T/C [1] was 105 % of control, the T/C [2] was 97 % of control and the T/C [3] was 91 % of control.

With `CC(C)(O)[C@H]1[C@@H]2OC(=O)[C@H]1[C@]1(O)C[C@H]3OC34C(=O)O[C@H]2[C@@]41C` (some centres not stated) (tested in a mixture with another compound) the T/C (dose: 0.25 mg/kg/injection, schedule: Q01DX009 (ip), vehicle: Klucel (hydroxypropylcellulose) (HPC)) was 99 % of control, the T/C (dose: 0.5 mg/kg/injection, schedule: Q01DX009 (ip), vehicle: Klucel (hydroxypropylcellulose) (HPC)) was 113 % of control and the T/C (dose: 1.0 mg/kg/injection, schedule: Q01DX009 (ip), vehicle: Klucel (hydroxypropylcellulose) (HPC)) was 100 % of control. For the same compound, the T/C (dose: 2.0 mg/kg/injection, schedule: Q01DX009 (ip), vehicle: Klucel (hydroxypropylcellulose) (HPC)) was 96 % of control, the T/C (dose: 25.0 mg/kg/injection, schedule: Q01DX009 (ip), vehicle: Klucel (hydroxypropylcellulose) (HPC)) was 99 % of control and the T/C (dose: 50.0 mg/kg/injection, schedule: Q01DX009 (ip), vehicle: Klucel (hydroxypropylcellulose) (HPC)) was 105 % of control. For the same compound, the T/C (dose: 100.0 mg/kg/injection, schedule: Q01DX009 (ip), vehicle: Klucel (hydroxypropylcellulose) (HPC)) was 106 % of control and the T/C (dose: 200.0 mg/kg/injection, schedule: Q01DX009 (ip), vehicle: Klucel (hydroxypropylcellulose) (HPC)) was 96 % of control.

With `O=C(O)CCO/N=C1/Oc2ccc(Cl)cc2C1=O` the T/C [1] was 103 % of control, the T/C [2] was 102 % of control and the T/C [3] was 101 % of control.

— PubChem BioAssay AID330 (DTP/NCI, 2004)
